Key:
Type in all cases: ADME, organism-based
[1] = Cmax in BALB/c mouse brain at 2 mg/kg, iv; design: dose 2 mg/kg, route intravenous
[2] = Cmax in BALB/c mouse plasma at 2 mg/kg, iv; design: dose 2 mg/kg, route intravenous
Brain [3] = experiment: AUClast in BALB/c mouse brain at 2 mg/kg, iv; conditions: in vivo
Brain [4] = experiment: AUClast in BALB/c mouse brain at 10 mg/kg, po; conditions: in vivo

SMILES: CNCCN(C)c1cc(C#N)cc(CCc2cc(C)cc(N)n2)c1
- Cmax [1]: 100 ng/g
- Cmax [2]: 472 ng/mL
- AUClast (Brain [3]): 789.07 ng·h/g
- AUClast (Brain [4]): 673.67 ng·h/g

Source: ChEMBL document CHEMBL3585280, “2-Aminopyridines with a Truncated Side Chain To Improve Human Neuronal Nitric Oxide Synthase Inhibitory Potency and Selectivity” (J Med Chem, 2015)
